Ends that are not written are not given here.

Here are results for twelve compounds from patent US6348571B1, “Corticotropin release inhibiting factor and methods of using same” (Northwestern University, priority 1994, dated 2002).

Data set [1] has as its system SCW-induced inflammatory response. Kind of data set: Thyroid status and SCW-induced inflammatory response in female rats. It counts as in vivo, rat. From the text:
RA is an autoimmune disease characterized by chronic degradation of the joints resulting from inflammation of synovial membranes. SCW-induced inflammation in the autoimmune prone female Lewis rat is an accepted animal model for the study of RA. […] It is likely that increased thyroid activity decreases the susceptibility to inflammatory immune disease by increasing glucocorticoid levels. The discovery of CRIF encoded within the same precursor as TRH establishes a direct link between the HPA and thyroid axes. Thyroid hormones may play a fundamental role in regulating the HPA axis by modulation of levels of prepro-TRH mRNA.
To determine the role played by thyroid hormones and concomitant changes in the HPA axis in the development of SCW-induced inflammatory response, expression of genes which reflect the status of thyroid function (TRH), pituitary-adrenal activity (POMC) and inflammation (IL-1β and MIP-1α, a macrophage specific inflammatory protein) was measured. Adult female rats were fed a regular diet (control), or a regular diet plus 0.012% T4 (hyperthyroid) or 0.05% 6-propyl-thiouracil (PTU) supplied in the in drinking water (hypothyroid), for seven weeks. A preparation of SCW (20 μg/g of body weight) was administered intraperitoneally to the rats three days before decapitation. Anterior pituitary POMC, hypothalamic TRH and peritoneal macrophage IL-1β and MIP-1α mRNA levels were assessed by Northern blot hybridization analysis using specific cDNA probes. The levels of mRNA were normalized to the housekeeping gene, GAPD, and were quantified by image analysis densitometry. Plasma levels of TSH and CORT were determined by RIA.

A further data set relates to At-20 cells. Description: Inhibition of PMA- or forskolin-stimulated ACTH release in At-20 cells by small CRIF peptides. The settings on record: PMA 100 nM, FIG. 18. In kind it is cell-based. The procedure: FIG. 19 is a graph and amino acid sequences [SEQ ID NOS:1, 6 and 5, resepctively], where the graph depicts the fact that forskolin-stimulated ACTH secretion is inhibited by peptides derived from prepro-TRH 178-199. The biological activity of small CRIF peptides was tested in vitro, using inhibition of ACTH release in At-20 cells as the bioassay. These peptides were tested in 2-7 independent experiments, where treatments were added in triplicate. Forskolin was used at a concentration of 20 μM, and PMA was used at a concentration of 100 nM.
CRIF peptides having either four contiguous amnino acids or nine contiguous amino acids positioned between the fourth and fifth TRH sequence in a rprepro-TRH polypeptide were prepared. These peptides are referred to herein as rprepro-TRH 196-199 (SEQ ID NO:5, having four contiguous amino acids) and rprepro-TRH 191-199 (SEQ ID NO:6, having nine contiguous amino acids). The CRIF activity of each of these peptides was assessed in vitro in a bioassay, wherein inhibition of ACTH release in At-20 cells was used as a measure of CRIF activity. Full length CRIF (rprepro-TRH 178-199) was used as a positive control. […] Thus, CRIF peptides having less than twenty two contiguous amino acids have CRIF activity.

A further data set relates to F344XBN rats. Kind of data set: Forced swim test after sub-acute icv administration. In kind it is in vivo. The protocol:
In FIG. 20 there is shown data which establish that prepro-TRH 191-199 decreased immobility in the forced swim test when the peptide was administered to a rat icv. In this experiment, adult male Sprague-Dawley or F1 Brown Norway/Fisher344 rats were used in these experiments. Rats were implanted with cannulae into the lateral ventricle as described previously (McGivern, 1997, J. Neurosci. 17:4886-4894). For the stereotaxic surgery, animals were anesthetized (ketamine, 50 mg/kg/xylazine, 8 mg/kg) and positioned in a stereotaxic head fame. At the end of behavioral testing, placements will be verified by anesthetizing the animal with pentobarbital (45 mg/kg) and injecting 1 μl tryphan blue staining solution through the cannulae just prior to decapitation. Only data from animals with correct placement were included in the analysis.
At least 7 days after the stereotaxic surgery, animals were subjected to an initial 15 minute swim pretest, followed by a 5-minute swim test 24 hours later. Rats received two injections of sterile vehicle or prepro-TRH 178-199 (1.5, 3.0, 6.0 or 12.0 μg/kg; 0.6, 1.2., 2.3 and 4.6 nmol/kg) in […] between the pretest and the test. 15 minutes after the initial (pre)-swim and 5 minutes before the test swim. In the case of prepro-TRH 191-199 administration, the C-terminal peptide was administered in this sub-acute fashion at 2.2 μg/kg (2.3 nmol/kg) dose, which is equivalent to 6 μg/kg prepro-TRH 178-199. Water was chosen instead of saline or artificial CSF for solubility reasons: the peptide dissolved much better in sterile, pyrogen-free water and animals tolerated this vehicle very well even after 14 days of daily administration. F344XBN rats were used. Prepro-TRH 191-199 had effects very similar to those of the full-length peptide.

For a further data set, the system named is rats. Kind of data set: Side effects in rats treated in vivo with CRIF.
The test system of data set [2] is primary anterior pituitary cells. Description: Bioassay of synthetic prepro-TRH peptides: ACTH secretion in primary anterior pituitary cells. It counts as cell-based. Conditions: primary pituitary cell cultures, 10 nM CRF. The procedure: (§1) The bioactivity of various synthetic peptides corresponding to the various prepro-TRH intervening sequences was assessed in AtT-20 or primary anterior pituitary cells. All experiments were conducted in triplicate. To perform this assay, AtT-20 cells were plated at a density of 10^5 cells/well in 24 well plates. After 24 hours, the medium was removed and replaced with steroid-free medium containing the test peptide at a concentration of 10^−10-10^−6 M. When primary pituitary cultures were used, freshly dispersed anterior pituitary cells (1-2×10^5 cells/well) were plated in 24 well plates for 48 hours using steroid free media. Again, after 24 hours, the medium was removed and replaced with steroid-free medium containing the test peptide at a concentration of 10^−10-10^−6 M. The supernatants from the cells were harvested after 4 hours of incubation under unstimulated or CRF-stimulated conditions. AtT-20 cells were stimulated with 50 nM CRF and primary pituitary cells were stimulated with 10 nM CRF. The supernatants were centrifuged and stored at −80° C.
ACTH-like immunoreactivity was measured using an antiserum which reacts with amino acids 1-24 and 1-39 on ACTH on an equimolar basis. The assay is described in Redei et al. (1988, Endocrinology, 123:2736-2743). For these studies, ^125I-ACTH 1-39 was used as a tracer. This assay is capable of detecting as little as 3 pg ACTH/tube. […]

A further data set has as its system AtT-20 cells. Description: Bioassay of synthetic prepro-TRH peptides: ACTH secretion in AtT-20 cells. It counts as cell-based, mouse. The settings on record: peptide 10^-10-10^-6 M, 4 hours, 50 nM CRF. The protocol:
as §1
ACTH-like immunoreactivity was measured using an antiserum which reacts with amino acids 1-24 and 1-39 on ACTH on an equimolar basis. The assay is described in Redei et al. (1988, Endocrinology, 123:2736-2743). For these studies, ^125I-ACTH 1-39 was used as a tracer. This assay is capable of detecting as little as 3 pg ACTH/tube. Intraassay and interassay coefficients of variation were 6.4% and 11.6% respectively.
Peptides prepro-TRH 115-151, 160-169 and 178-199 were obtained from Penninsula Lab Inc. (Belmont, Calif.); peptides prepro-TRH 53-74, 83-106 and TRH precursor peptide (Lys-Arg-Gln-His-Pro-Gly-Lys-Arg) were obtained from American Peptide Co. Inc. (Sunnyvale, CA); and, peptides prepro-TRH 25-50, 208-220 and 230-255 were obtained from Quality Control QCB, Hopkington, Mass.

As to `CCCc1cc(=O)[nH]c(=S)[nH]1` [PTU, 6-propyl-thiouracil], in data set [1] (SCW 20 μg/g ip, SCW-administered control rats 17-fold), the “increase in macrophage MIP-1α mRNA levels on SCW administration” value was determined as 22 fold. Besides, the “plasma CORT levels” value in data set [1] (altered thyroid status, FIG. 12E) is “significant decrease”. The “increase of hypothalamic TRH mRNA levels” value in data set [1] (hypothyroid group, 0.05% in drinking water, seven weeks, p<0.01) is reported as 52%.
For “EGEGVLMPE [prepro-TRH 191-199, CRIF peptide having nine contiguous amino acids]”, the “PMA-stimulated ACTH secretion” value with At-20 cells was “capable of inhibiting ACTH secretion at levels which are comparable to those achieved using full length CRIF”. Also, the “floating in the forced swim test” value with F344XBN rats (icv sub-acute, equimolar 2.3 nmol/kg (2.2 μg/kg 191-199; 6 μg/kg 178-199), p<0.001) is on record as “significantly decreased”. Moreover, in the data set on F344XBN rats (icv sub-acute, equimolar 2.3 nmol/kg (2.2 μg/kg 191-199; 6 μg/kg 178-199), p<0.01), the “climbing in the forced swim test” value is “increased”. In addition, the “immobility in the forced swim test” value in the data set with F344XBN rats (icv, rat) is “decreased”.
On to “FIDPELQRSWEEKEGEGVLMPE [prepro-TRH 178-199]”, for which the “side effects associated with administration” value with rats is given as “no discernible deleterious side effects”.
Take KRQHPGKR [TRH precursor peptide]: in data set [2], the “CRIF activity (ACTH secretion)” value is recorded as “only peptide 178-199 exhibited CRIF activity”.
Regarding “Leu-Met-Pro-Glu (LMPE; printed: Leu-Met-Pro-Glu) [prepro-TRH 196-199, CRIF peptide having four contiguous amino acids]”, the “PMA-stimulated ACTH secretion” value in the data set with At-20 cells is “capable of inhibiting ACTH secretion at levels which are comparable to those achieved using full length CRIF”.
Turning to “prepro-TRH 25-50: intervening peptide of rat prepro-TRH, amino acids 25-50 (LPEAAQEEGAVTPDLPGLENVQVRPE; UniProt P01150 25-50, looked up, fragment)”, in the data set with AtT-20 cells, the “bioactivity: basal and CRF-stimulated ACTH secretion” value is on record as “only the peptide comprising amino acids 178-199 exhibited bioactivity”.
Same read-out and setting: the same measure for “prepro-TRH 53-74: intervening peptide of rat prepro-TRH, amino acids 53-74 (FLWKDLQRVRGDLGAALDSWIT; UniProt P01150 53-74, looked up, fragment)”: “only the peptide comprising amino acids 178-199 exhibited bioactivity”; for “prepro-TRH 83-106: intervening peptide of rat prepro-TRH, amino acids 83-106 (EEEEKDIEAEERGDLGEGGAWRLH; UniProt P01150 83-106, looked up, fragment)”: “only the peptide comprising amino acids 178-199 exhibited bioactivity”; for “prepro-TRH 115-151: intervening peptide of rat prepro-TRH, amino acids 115-151 (ANQDKYSWADEEDSDWMPRSWLPDFFLDSWFSDVPQV; UniProt P01150 115-151, looked up, fragment)”: “only the peptide comprising amino acids 178-199 exhibited bioactivity”.
Turning to “prepro-TRH 160-169: intervening peptide of rat prepro-TRH, amino acids 160-169 (SFPWMESDVT; UniProt P01150 160-169, looked up, fragment)”, in the data set with AtT-20 cells, the “bioactivity: basal and CRF-stimulated ACTH secretion” value is listed as “only the peptide comprising amino acids 178-199 exhibited bioactivity”.
Same read-out and setting: the same measure for “prepro-TRH 208-220: intervening peptide of rat prepro-TRH, amino acids 208-220 (ALGHPCGPQGTCG; UniProt P01150 208-220, looked up, fragment)”: “only the peptide comprising amino acids 178-199 exhibited bioactivity”.
Regarding “prepro-TRH 230-255: intervening peptide of rat prepro-TRH, amino acids 230-255 (DLSRGQETLVKQSPQVEPWDKEPLEE; UniProt P01150 230-255, looked up, fragment)”, the “bioactivity: basal and CRF-stimulated ACTH secretion” value in the data set on AtT-20 cells is “only the peptide comprising amino acids 178-199 exhibited bioactivity”. Besides, in data set [2], the “CRIF activity (ACTH secretion)” value is “only peptide 178-199 exhibited CRIF activity”.
